{
  "source": "paper PMC5218480",
  "about": "(PLoS ONE, 2017)",
  "test_system": "MV-4-11 cells",
  "assay": "Gene expression microarray analysis (Affymetrix PrimeView) and GSEA",
  "format": "cell-based, human",
  "set-up": "RFU PODN (11730768_x_at) / Fold change /veh PODN (11730768_x_at) / RFU LINC00158 (11744669_a_at) / Fold change /veh LINC00158 (11744669_a_at) / RFU DUSP10 (11751237_a_at) / Fold change /veh DUSP10 (11751237_a_at) / RFU ID3 (11757404_x_at) / Fold change /veh ID3 (11757404_x_at) / RFU PLEKHG5 (11737974_s_at) / Fold change /veh PLEKHG5 (11737974_s_at) / RFU LRRC4B (11730491_at) / Fold change /veh LRRC4B (11730491_at) / RFU GIMAP4 (11747438_a_at) / Fold change /veh GIMAP4 (11747438_a_at) / RFU KRT8 (11758183_x_at) / Fold change /veh KRT8 (11758183_x_at) / RFU CNN1 (11734310_a_at) / Fold change /veh CNN1 (11734310_a_at) / RFU VPS37D (11726825_at) / Fold change /veh VPS37D (11726825_at) / RFU C10orf10 (11716522_x_at) / Fold change /veh C10orf10 (11716522_x_at) / RFU KIR2DL2 /// KIR2DL4 /// KIR2DL5A /// KIR2DL5B /// KIR2DS1 /// KIR2DS2 /// KIR2DS3 /// KIR2DS4 /// KIR3DL3 /// KIR3DL3 /// KIR3DS1 (11738374_at) / Fold change /veh KIR2DL2 /// KIR2DL4 /// KIR2DL5A /// KIR2DL5B /// KIR2DS1 /// KIR2DS2 /// KIR2DS3 /// KIR2DS4 /// KIR3DL3 /// KIR3DL3 /// KIR3DS1 (11738374_at) / RFU C1QL1 (11718748_at) / Fold change /veh C1QL1 (11718748_at) / RFU TMPRSS4 (11747572_a_at) / Fold change /veh TMPRSS4 (11747572_a_at) / RFU HAMP (11756126_x_at) / Fold change /veh HAMP (11756126_x_at) / RFU RNFT2 (11725882_a_at) / Fold change /veh RNFT2 (11725882_a_at) / RFU NR4A2 (11747474_a_at) / Fold change /veh NR4A2 (11747474_a_at) / RFU ABCC12 (11746883_a_at) / Fold change /veh ABCC12 (11746883_a_at) / RFU TMEM136 (11760407_x_at) / Fold change /veh TMEM136 (11760407_x_at) / RFU CLDN22 /// WWC2 (11732394_at) / Fold change /veh CLDN22 /// WWC2 (11732394_at) / RFU HLA-DPB1 (11760878_x_at) / Fold change /veh HLA-DPB1 (11760878_x_at) / RFU SPINT1 (11716480_a_at) / Fold change /veh SPINT1 (11716480_a_at) / RFU GAP43 (11754022_s_at) / Fold change /veh GAP43 (11754022_s_at) / RFU A4GNT (11735810_at) / Fold change /veh A4GNT (11735810_at) / RFU PRB3 (11715151_x_at) / Fold change /veh PRB3 (11715151_x_at) / RFU TUBB4B (11761932_at) / Fold change /veh TUBB4B (11761932_at) / RFU CAPN14 (11732068_a_at) / Fold change /veh CAPN14 (11732068_a_at) / RFU TMCC2 (11721928_a_at) / Fold change /veh TMCC2 (11721928_a_at) / RFU IRGQ (11745062_a_at) / Fold change /veh IRGQ (11745062_a_at) / RFU FAM174B (11720279_a_at) / Fold change /veh FAM174B (11720279_a_at) / RFU TMPRSS4 (11748680_a_at) / Fold change /veh TMPRSS4 (11748680_a_at) / RFU FAM212B (11763350_a_at) / Fold change /veh FAM212B (11763350_a_at) / RFU PLEKHG5 (11743358_a_at) / Fold change /veh PLEKHG5 (11743358_a_at) / RFU ZSCAN30 (11745921_a_at) / Fold change /veh ZSCAN30 (11745921_a_at) / RFU CMKLR1 (11741424_a_at) / Fold change /veh CMKLR1 (11741424_a_at) / RFU LOC101060620 /// MAPK8IP1 (11723275_at) / Fold change /veh LOC101060620 /// MAPK8IP1 (11723275_at) / RFU SPTSSB (11747773_x_at) / Fold change /veh SPTSSB (11747773_x_at) / RFU PRSS12 (11739890_at) / Fold change /veh PRSS12 (11739890_at) / RFU BIN1 (11741810_x_at) / Fold change /veh BIN1 (11741810_x_at) / RFU WNT11 (11732464_a_at) / Fold change /veh WNT11 (11732464_a_at) / RFU C10orf10 (11716521_a_at) / Fold change /veh C10orf10 (11716521_a_at) / RFU C5orf56 (11738089_at) / Fold change /veh C5orf56 (11738089_at) / RFU CYB561 (11721691_x_at) / Fold change /veh CYB561 (11721691_x_at) / RFU ANKRD19P (11752326_a_at) / Fold change /veh ANKRD19P (11752326_a_at) / RFU OR2T12 /// OR2T33 /// OR2T8 (11738714_s_at) / Fold change /veh OR2T12 /// OR2T33 /// OR2T8 (11738714_s_at) / RFU VCAN (11748164_a_at) / Fold change /veh VCAN (11748164_a_at) / RFU JSRP1 (11732532_at) / Fold change /veh JSRP1 (11732532_at) / RFU KRTAP10-11 (11738290_x_at) / Fold change /veh KRTAP10-11 (11738290_x_at) / RFU MYO3A (11730013_a_at) / Fold change /veh MYO3A (11730013_a_at) / RFU EBF3 (11725865_a_at) / Fold change /veh EBF3 (11725865_a_at) / RFU CAMK2N1 (11719241_x_at) / Fold change /veh CAMK2N1 (11719241_x_at) / RFU C5orf56 (11738088_a_at) / Fold change /veh C5orf56 (11738088_a_at) / RFU OLFML3 (11715873_a_at) / Fold change /veh OLFML3 (11715873_a_at) / RFU LOC100653217 /// NTM (11731650_a_at) / Fold change /veh LOC100653217 /// NTM (11731650_a_at) / RFU MAPK11 (11762145_a_at) / Fold change /veh MAPK11 (11762145_a_at) / RFU FIZ1 (11724087_x_at) / Fold change /veh FIZ1 (11724087_x_at) / RFU OASL (11726364_x_at) / Fold change /veh OASL (11726364_x_at) / RFU SOX15 (11748057_x_at) / Fold change /veh SOX15 (11748057_x_at) / RFU CD79A (11719716_a_at) / Fold change /veh CD79A (11719716_a_at) / RFU HIST1H1D (11736915_at) / Fold change /veh HIST1H1D (11736915_at) / RFU CASKIN2 (11723855_a_at) / Fold change /veh CASKIN2 (11723855_a_at) / RFU LOC730098 (11760151_x_at) / Fold change /veh LOC730098 (11760151_x_at) / RFU OR4N2 (11742367_at) / Fold change /veh OR4N2 (11742367_at) / RFU PRRT2 (11749266_a_at) / Fold change /veh PRRT2 (11749266_a_at) / RFU SNX32 (11753110_a_at) / Fold change /veh SNX32 (11753110_a_at) / RFU CDHR5 (11726645_a_at) / Fold change /veh CDHR5 (11726645_a_at) / RFU RCAN1 (11760418_a_at) / Fold change /veh RCAN1 (11760418_a_at) / RFU FAM167A (11723789_a_at) / Fold change /veh FAM167A (11723789_a_at) / RFU FAM26E (11764081_at) / Fold change /veh FAM26E (11764081_at) / RFU ISYNA1 (11749810_s_at) / Fold change /veh ISYNA1 (11749810_s_at) / RFU ACY1 (11761880_at) / Fold change /veh ACY1 (11761880_at) / RFU 11764098_at / Fold change /veh 11764098_at / RFU SAMD14 (11745864_x_at) / Fold change /veh SAMD14 (11745864_x_at) / RFU NPB (11741838_a_at) / Fold change /veh NPB (11741838_a_at) / RFU TMPRSS6 (11731388_a_at) / Fold change /veh TMPRSS6 (11731388_a_at) / RFU KRTAP10-2 (11738614_at) / Fold change /veh KRTAP10-2 (11738614_at) / RFU ARHGAP8 /// PRR5-ARHGAP8 (11727945_x_at) / Fold change /veh ARHGAP8 /// PRR5-ARHGAP8 (11727945_x_at) / RFU KRTAP5-7 /// NADSYN1 (11734609_at) / Fold change /veh KRTAP5-7 /// NADSYN1 (11734609_at) / RFU RASL12 (11751679_a_at) / Fold change /veh RASL12 (11751679_a_at) / RFU CDKN2B (11736163_a_at) / Fold change /veh CDKN2B (11736163_a_at) / RFU PRF1 (11729649_at) / Fold change /veh PRF1 (11729649_at) / RFU, ZNF638 /// ZNF638-IT1 / Fold change vs veh, ZNF638 /// ZNF638-IT1 / RFU, PANK3 / Fold change vs veh, PANK3 / RFU, SH3YL1 / Fold change vs veh, SH3YL1 / RFU, ZEB2 / Fold change vs veh, ZEB2 / RFU, NRIP1 / Fold change vs veh, NRIP1 / RFU, PTTG1IP / Fold change vs veh, PTTG1IP / RFU, CAPN2 / Fold change vs veh, CAPN2 / RFU, MED14 / Fold change vs veh, MED14 / RFU, SNORA58 / Fold change vs veh, SNORA58 / RFU, C1orf63 / Fold change vs veh, C1orf63 / RFU, LRRFIP1 / Fold change vs veh, LRRFIP1 / RFU, NDUFAF7 / Fold change vs veh, NDUFAF7 / RFU, SLC12A2 / Fold change vs veh, SLC12A2 / RFU, IBTK / Fold change vs veh, IBTK / RFU, ESF1 / Fold change vs veh, ESF1 / Fold change vs veh, TMEM50B / RFU, TAOK1 / Fold change vs veh, TAOK1 / RFU, ACBD3 / Fold change vs veh, ACBD3 / RFU, TMA16 / Fold change vs veh, TMA16 / RFU, RWDD3 / Fold change vs veh, RWDD3 / RFU, BCAT1 / Fold change vs veh, BCAT1 / RFU, EDEM3 / Fold change vs veh, EDEM3 / RFU, TMEM33 / Fold change vs veh, TMEM33 / RFU, WDR75 / Fold change vs veh, WDR75 / RFU, AHCTF1 / Fold change vs veh, AHCTF1 / RFU, TFRC / Fold change vs veh, TFRC / RFU, ZDHHC17 / Fold change vs veh, ZDHHC17 / RFU, NOM1 / Fold change vs veh, NOM1 / RFU, ARL8B / Fold change vs veh, ARL8B / RFU, ZBTB11 / Fold change vs veh, ZBTB11 / RFU, TAMM41 / Fold change vs veh, TAMM41 / RFU, KIAA1704 /// LOC100996395 / Fold change vs veh, KIAA1704 /// LOC100996395 / RFU, ING1 / Fold change vs veh, ING1 / RFU, TRMT61B / Fold change vs veh, TRMT61B / RFU, FUBP3 / Fold change vs veh, FUBP3 / RFU, TP53 / Fold change vs veh, TP53 / RFU, TNKS2 / Fold change vs veh, TNKS2 / RFU, ZFP14 / Fold change vs veh, ZFP14 / RFU, ACTR2 / Fold change vs veh, ACTR2 / RFU, PPP3R1 / Fold change vs veh, PPP3R1 / RFU, PIK3R1 / Fold change vs veh, PIK3R1 / RFU, HNRNPA1 / Fold change vs veh, HNRNPA1 / RFU, RNF170 / Fold change vs veh, RNF170 / RFU, ZNF28 / Fold change vs veh, ZNF28 / RFU, RNGTT / Fold change vs veh, RNGTT / RFU, OGT / Fold change vs veh, OGT / RFU, BRD1 / Fold change vs veh, BRD1 / RFU, MARS / Fold change vs veh, MARS / RFU, ZNF655 / Fold change vs veh, ZNF655 / RFU, FAHD1 / Fold change vs veh, FAHD1 / RFU, BDP1 / Fold change vs veh, BDP1 / RFU, LRRCC1 / Fold change vs veh, LRRCC1 / RFU, ARID1A / Fold change vs veh, ARID1A / RFU, ZNF146 / Fold change vs veh, ZNF146 / RFU, ZNF330 / Fold change vs veh, ZNF330 / RFU, GPN3 / Fold change vs veh, GPN3 / RFU, C9orf123 / Fold change vs veh, C9orf123 / RFU, N4BP2L2 / Fold change vs veh, N4BP2L2 / RFU, ARFIP1 / Fold change vs veh, ARFIP1 / RFU, FAM179B / Fold change vs veh, FAM179B / RFU, BCL10 / Fold change vs veh, BCL10 / RFU, UHRF1BP1L / Fold change vs veh, UHRF1BP1L / RFU, BET1 / Fold change vs veh, BET1 / RFU, CNOT2 / Fold change vs veh, CNOT2 / RFU, ZNF268 / Fold change vs veh, ZNF268 / Fold change vs veh, ZNF507 / RFU, DGCR2 / Fold change vs veh, DGCR2 / RFU, WDSUB1 / Fold change vs veh, WDSUB1 / Fold change vs veh, HSP90B1 /// MIR3652 / RFU, ADSS / Fold change vs veh, ADSS / RFU, GK / Fold change vs veh, GK / RFU, ZNF148 / Fold change vs veh, ZNF148 / RFU, TAF9 / Fold change vs veh, TAF9 / RFU, SLC1A5 / Fold change vs veh, SLC1A5 / RFU, SLMO2 / Fold change vs veh, SLMO2 / RFU, ABCC4 / Fold change vs veh, ABCC4 / RFU, LOC101060439 /// RAP1B / Fold change vs veh, LOC101060439 /// RAP1B / RFU, RFX7 / Fold change vs veh, RFX7 / RFU, GTPBP10 / Fold change vs veh, GTPBP10 / RFU, CNEP1R1 / Fold change vs veh, CNEP1R1 / RFU, BIVM-ERCC5 /// ERCC5 / Fold change vs veh, BIVM-ERCC5 /// ERCC5 / RFU, ILF3 / Fold change vs veh, ILF3 / RFU 11762660_at / Fold change /veh 11762660_at / RFU VCAN (11757783_s_at) / Fold change /veh VCAN (11757783_s_at) / RFU DDX43 (11728927_at) / Fold change /veh DDX43 (11728927_at) / RFU KRT8 (11758188_x_at) / Fold change /veh KRT8 (11758188_x_at) / RFU NKD1 (11759106_at) / Fold change /veh NKD1 (11759106_at) / RFU SRD5A1 (11742802_a_at) / Fold change /veh SRD5A1 (11742802_a_at) / RFU TPSAB1 /// TPSB2 (11721975_s_at) / Fold change /veh TPSAB1 /// TPSB2 (11721975_s_at) / RFU GSTM3 (11746129_a_at) / Fold change /veh GSTM3 (11746129_a_at) / RFU IL23R (11737362_x_at) / Fold change /veh IL23R (11737362_x_at) / RFU TMEM51 (11727254_a_at) / Fold change /veh TMEM51 (11727254_a_at) / RFU PIWIL2 (11732686_x_at) / Fold change /veh PIWIL2 (11732686_x_at) / RFU ORM1 (11744905_x_at) / Fold change /veh ORM1 (11744905_x_at) / RFU CCDC152 (11743942_at) / Fold change /veh CCDC152 (11743942_at) / RFU ECM1 (11717891_a_at) / Fold change /veh ECM1 (11717891_a_at) / RFU IL23R (11748794_a_at) / Fold change /veh IL23R (11748794_a_at) / RFU TNFAIP8L3 (11732012_x_at) / Fold change /veh TNFAIP8L3 (11732012_x_at) / RFU MBOAT4 (11741988_at) / Fold change /veh MBOAT4 (11741988_at) / RFU 11764193_at / Fold change /veh 11764193_at / RFU TMEM53 (11763286_at) / Fold change /veh TMEM53 (11763286_at) / RFU MAGEB2 (11727129_at) / Fold change /veh MAGEB2 (11727129_at) / RFU TMEM200A (11744735_a_at) / Fold change /veh TMEM200A (11744735_a_at) / RFU CCDC152 (11751479_a_at) / Fold change /veh CCDC152 (11751479_a_at) / RFU FAM211A (11726209_a_at) / Fold change /veh FAM211A (11726209_a_at) / RFU RGS16 (11746705_a_at) / Fold change /veh RGS16 (11746705_a_at) / RFU VCAN (11755009_s_at) / Fold change /veh VCAN (11755009_s_at) / RFU RHOB (11743442_s_at) / Fold change /veh RHOB (11743442_s_at) / RFU RGS16 (11720943_a_at) / Fold change /veh RGS16 (11720943_a_at) / RFU RGS16 (11720944_at) / Fold change /veh RGS16 (11720944_at) / RFU, VPS4B / Fold change vs veh, VPS4B / RFU, CREB1 / Fold change vs veh, CREB1 / RFU, DNAJC13 / Fold change vs veh, DNAJC13 / RFU, GNAQ / Fold change vs veh, GNAQ / RFU, CDK5R1 / Fold change vs veh, CDK5R1 / RFU, ZRANB3 / Fold change vs veh, ZRANB3 / RFU, CUL4A / Fold change vs veh, CUL4A / RFU, CCNY / Fold change vs veh, CCNY / RFU, UFL1 / Fold change vs veh, UFL1 / RFU, COG3 / Fold change vs veh, COG3 / RFU, DIAPH2 / Fold change vs veh, DIAPH2 / RFU, SKA2 / Fold change vs veh, SKA2 / RFU, AFF3 / Fold change vs veh, AFF3 / RFU, LMF1 / Fold change vs veh, LMF1 / RFU, IPO11 / Fold change vs veh, IPO11 / RFU, DFFB / Fold change vs veh, DFFB / RFU, FOXP1 / Fold change vs veh, FOXP1 / RFU, CARD8 / Fold change vs veh, CARD8 / RFU, STRN3 / Fold change vs veh, STRN3 / RFU, ADK / Fold change vs veh, ADK / RFU, RASSF2 / Fold change vs veh, RASSF2 / RFU, WIPF1 / Fold change vs veh, WIPF1 / RFU, LARP1B / Fold change vs veh, LARP1B / RFU, RASA1 / Fold change vs veh, RASA1 / RFU, RB1 / Fold change vs veh, RB1 / RFU, PPFIA1 / Fold change vs veh, PPFIA1 / RFU, MAT2A / Fold change vs veh, MAT2A / RFU, CCT5 / Fold change vs veh, CCT5 / RFU, WDR92 / Fold change vs veh, WDR92 / RFU, CUX1 / Fold change vs veh, CUX1 / RFU, TTC7A / Fold change vs veh, TTC7A / RFU, TMEM135 / Fold change vs veh, TMEM135 / RFU, DEPTOR / Fold change vs veh, DEPTOR / RFU, CPM / Fold change vs veh, CPM / RFU, DNAJB6 / Fold change vs veh, DNAJB6 / RFU, CACNA2D3 / Fold change vs veh, CACNA2D3 / RFU, DTX4 / Fold change vs veh, DTX4 / RFU, TFCP2 / Fold change vs veh, TFCP2 / RFU, GMCL1 /// GMCL1P1 / Fold change vs veh, GMCL1 /// GMCL1P1 / RFU, AEBP2 / Fold change vs veh, AEBP2 / RFU, SNHG1 /// SNORD22 /// SNORD25 /// SNORD26 /// SNORD27 /// SNORD28 /// SNORD29 /// SNORD31 / Fold change vs veh, SNHG1 /// SNORD22 /// SNORD25 /// SNORD26 /// SNORD27 /// SNORD28 /// SNORD29 /// SNORD31 / Fold change (Aza/veh), C12orf56 (ProbeSet 11735607_a_at) / Fold change (ACY-1035/veh), C12orf56 (ProbeSet 11735607_a_at) / Fold change (Aza/veh), FGFR1OP (ProbeSet 11751329_s_at) / Fold change (ACY-1035/veh), FGFR1OP (ProbeSet 11751329_s_at) / Fold change (Aza/veh), VPS36 (ProbeSet 11739960_a_at) / Fold change (ACY-1035/veh), VPS36 (ProbeSet 11739960_a_at) / RFU SYPL1 (11715823_x_at) / Fold change /veh SYPL1 (11715823_x_at) / RFU IGFBP7 (11715501_s_at) / Fold change /veh IGFBP7 (11715501_s_at) / RFU REEP3 (11722064_at) / Fold change /veh REEP3 (11722064_at) / RFU IGLL1 (11728026_x_at) / Fold change /veh IGLL1 (11728026_x_at): dose or concentration left out as unconfirmed",
  "conditions": "ProbeSet 11740528_a_at; LIST D",
  "data": [
    {"smiles": "Nc1ncn([C@@H]2O[C@H](CO)[C@@H](O)[C@H]2O)c(=O)n1", "note": "[azacitidine]", "values": [
      {"measurement": "RFU, AFF3", "result": 349.86, "unit": "RFU"}
    ]}
  ]
}
